We go through 22 compounds from patent US9687479B2, “Multisubstituted aromatic compounds as serine protease inhibitors” (VERSEON CORPORATION, priority 2013, dated 2017).

SMILES strings stand for the structures.

One data set concerns the target Human thrombin (Homo sapiens (Human), UniProt P00734). Description: Thrombin protease activity inhibition assay (chromogenic substrate S-2238). It is filed as biochemical. Conditions: 3 nM thrombin, 125 μM S-2238, 10 min pre-incubation, RT. In short, it runs like this:
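Ten-point, three-fold serial dilutions of compound tested against 3 nM enzyme at RT in Tris buffer (0.05 M, pH 7.4) with 0.015 M NaCl and 0.01% PEG-8000.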

The next data set deals with Human KLKB1 (Homo sapiens (Human), UniProt P03952). The experiment in a line: KLKB1 kallikrein activity inhibition assay (chromogenic substrate S-2302). The class given is biochemical. In short, it runs like this: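 Enzyme at a final 3 nM was assayed in 0.05 M Tris pH 7.4, 0.01 M NaCl and 0.2% PEG-8000 at room temperature, with compounds as ten-point threefold dilutions.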

Data set [1] has as its target Recombinant human tissue kallikrein (KLK1) (Homo sapiens (Human), UniProt P06870). The experiment in a line: KLK1 kallikrein activity inhibition assay (Pro-Phe-Arg-AMC substrate). The class given is biochemical. How it is done:
The KLK1 kallikrein activity reported herein (e.g., Tables B and C) was obtained as follows. Recombinant human tissue kallikrein (KLK1) was obtained from R&D Systems. […] KLK1 enzyme is activated by incubating 0.5 mg/ml KLK1 combined with 0.1 μg/ml thermolysin in a buffer of 0.05 M Tres (pH 7.5), 0.15 M NaCl, and 0.01 M CaCl2 for one hour at 37° C. The thermolysin is then deactivated by the addition of equal parts 20 mM 1, 10 phenanthroline solution in water. The activated KLK1 solution is then added to CHES buffer (0.05 M CHES, 0.15 M NaCl, 0.01 M CaCl2, pH 10) for a final concentration of 5 nM along with the test article and incubated for 10 minutes. […] Substrate activation is read 10 minutes after substrate addition using a Synergy H1 multifunction plate reader (Biotek) programmed with a 360 nm excitation wavelength and a 480 nm emission wavelength. Inhibitor response was established by adding test compound as ten point, three-fold serial dilutions, as known in the art. The IC50 was calculated by plotting the percent (%) inhibition against compound concentration and fitting the data to a constrained four parameter sigmoidal curve, as known in the art.

The nature of data set [2]: Pharmacokinetics in mice (i.v. and p.o.). It is filed as in vivo, male CD-1 mice. The following applies: male, CD-1, mouse, in vivo. How it is done: Each compound is administered intravenously (i.v.) as a single dose via tail vein or orally (p.o.) as a single dose via gastric gavage to male CD-1 mice of nominal weights between 20 g and 26 g. Nominal doses are 1 mg/kg and 5 mg/kg for i.v. and p.o., respectively. In some examples (dose type A), both p.o. and i.v. doses are prepared by dissolving the test compound in 5% dimethyl acetamide and diluted in tetraethylene glycol for a final concentration of 0.25 mg/mL. In other examples (dose type B), i.v. doses are prepared by dissolving test compounds in 20% dimethyl acetamide, 40% polyethylene glycol 300 and 40% phosphate buffered saline, and p.o. doses are prepared by dissolving test compounds in carboxymethyl cellulose suspension (1% by weight) in water and 2.5% dimethyl acetamide.
Animals are housed in standard holding cages with food and water available ad libitum except for animals used for p.o. dosing which are fasted overnight prior to dosing. Samples are taken in triplicate via cardiac puncture at times prior to dosing and at 0.083 (i.v. only), 0.25, 0.5, 1, 2, 4, 8, and 24 hours after administration. Plasma is obtained by centrifuge and stored frozen until analyzed by LC-MS/MS using a Shimadzu VP System HPLC coupled to a Applied Biosystems MDS SCIEX API 3000 triple quadrapole MS. Assay results are calibrated using reference samples prepared in a range between 1.5 and 5000 ng/mL.
Pharmacokinetic parameters are calculated from mean concentration values using a non-compartmental analysis as described in the following and as apparent to those of ordinary skill in the art. Half-lives (t1/2) and elimination rate constants (λ) are determined by log linear regression using equal weighting on the last three finite sample time points. Concentration at time zero (C0) for the i.v. data is established by the extrapolation of log linear regression using equal weighting on the first three sample time points. Area under the curve (AUC) values are calculated using linear trapezoidal integration. Systemic clearance (CL) is calculated as the ratio of dosage and AUC. […] Percent oral bioavailability (% F) is determined from the ratio of i.v. and p.o. AUC values weighted by dosage.

Sequence of Human KLKB1 (P03952 391-638 limits assumed): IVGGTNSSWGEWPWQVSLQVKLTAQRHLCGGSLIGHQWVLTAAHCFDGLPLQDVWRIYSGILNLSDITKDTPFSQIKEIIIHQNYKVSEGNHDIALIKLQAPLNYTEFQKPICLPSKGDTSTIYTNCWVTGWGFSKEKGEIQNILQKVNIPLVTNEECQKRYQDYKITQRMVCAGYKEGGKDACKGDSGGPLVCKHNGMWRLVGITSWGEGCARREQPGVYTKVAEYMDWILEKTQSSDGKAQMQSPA
Sequence of Human KLKB1 (P03952 20-390 partner limits assumed): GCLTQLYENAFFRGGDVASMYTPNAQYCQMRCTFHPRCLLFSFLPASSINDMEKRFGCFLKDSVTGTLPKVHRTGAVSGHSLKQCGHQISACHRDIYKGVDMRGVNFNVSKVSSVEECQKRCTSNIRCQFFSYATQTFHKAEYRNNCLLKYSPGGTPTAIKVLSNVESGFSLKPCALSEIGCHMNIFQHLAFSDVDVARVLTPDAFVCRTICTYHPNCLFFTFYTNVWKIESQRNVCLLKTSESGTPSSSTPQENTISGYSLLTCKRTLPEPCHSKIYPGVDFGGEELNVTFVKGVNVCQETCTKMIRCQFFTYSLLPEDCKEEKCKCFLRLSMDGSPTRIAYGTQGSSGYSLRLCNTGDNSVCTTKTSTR
Sequence of Recombinant human tissue kallikrein (KLK1) (P06870 25-262): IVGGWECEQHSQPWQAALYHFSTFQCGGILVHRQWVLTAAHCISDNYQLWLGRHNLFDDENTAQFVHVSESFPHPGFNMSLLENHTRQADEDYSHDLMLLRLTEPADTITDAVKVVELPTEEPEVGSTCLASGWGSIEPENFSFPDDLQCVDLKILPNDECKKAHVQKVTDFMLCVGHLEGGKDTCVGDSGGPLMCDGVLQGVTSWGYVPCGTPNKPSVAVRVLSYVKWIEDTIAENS

Broadly, the IC50 is the midpoint of a concentration-inhibition curve. As usually defined, the AUC is concentration integrated over time. Lower therefore signals less exposure. By half-life is commonly meant the time needed for the level to fall by half in the phase considered. Higher therefore signals slow loss. By bioavailability is commonly meant the share of a dose that reaches the circulation, judged against a reference dose that is usually intravenous. Read a low bioavailability as little systemic uptake. With `Cn1cccc(-c2cc(NCc3ccc(Cl)s3)n(C(=O)c3ccoc3)n2)c1=O` [Cmpd 23, 3-(5-[(5-chlorothiophen-2-yl)methyl]amino-1-[(furan-3-yl)carbonyl]-1H-pyrazol-3-yl)-1-methyl-1,2-dihydropyridin-2-one], on Human thrombin, the IC50 was < 100 nM. At Human KLKB1 (Table B), the IC50 lay within 1000 to 10000 nM. Moreover, in data set [1] (Table B), the IC50 was in the range of 10000 to 100000 nM. In data set [2] (iv, 1 mg/kg), this compound showed an AUC of 100 ng·h/mL, a C0 of 400 ng/mL, a Vd of 5 L/kg and a clearance of 133 mL/min/kg. The compound also gave a half-life in data set [2] (iv, 1 mg/kg) of 30 min. In data set [2] (po, 5 mg/kg), this compound had an AUC of 80 ng·h/mL, a bioavailability of 10% and a half-life of 36 min.

Take `O=C(O)Cn1cccc(-c2cc(NCc3ccc(Cl)s3)[nH]n2)c1=O` [Cmpd 59, 2-[3-(5-[(5-chlorothiophen-2-yl)methyl]amino-1H-pyrazol-3-yl)-2-oxo-1,2-dihydropyridin-1-yl]acetic acid]: the values for the IC50 (against Human thrombin; on Human KLKB1 (Table B); in data set [1] (Table B)) were 10000 to 100000 nM, 1000 to 10000 nM and > 100000 nM, respectively.

Consider `CC(C)(C)C(=O)n1nc(-c2cccn(Cc3cccnn3)c2=O)cc1NCc1ccc(Cl)s1` [Cmpd 81, 3-(5-[(5-chlorothiophen-2-yl)methyl]amino-1-(2,2-dimethylpropanoyl)-1H-pyrazol-3-yl)-1-(pyridazin-3-ylmethyl)-1,2-dihydropyridin-2-one], for which the figures for the IC50 (against Human thrombin; against Human KLKB1 (Table B); in data set [1] (Table B)) were < 100 nM, 1000 to 10000 nM and > 100000 nM, respectively.

As for `O=C(c1cccc2c1OCCO2)n1nc(-c2cccn(Cc3ccccn3)c2=O)cc1NCc1ccc(Cl)s1` [Cmpd 113, 3-(5-[(5-chlorothiophen-2-yl)methyl]amino-1-[(2,3-dihydro-1,4-benzodioxin-5-yl)carbonyl]-1H-pyrazol-3-yl)-1-(pyridin-2-ylmethyl)-1,2-dihydropyridin-2-one], the IC50 against Human thrombin is < 100 nM; on Human KLKB1 (Table B) it was 100 to 1000 nM; in data set [1] (Table B), 10000 to 100000 nM.

On to `COc1ccc(C(=O)n2nc(-c3cccn(Cc4cccnc4)c3=O)cc2NCc2ccc(Cl)s2)c(OC)c1` [Cmpd 126, 3-(5-[(5-chlorothiophen-2-yl)methyl]amino-1-[(2,4-dimethoxyphenyl)carbonyl]-1H-pyrazol-3-yl)-1-(pyridin-3-ylmethyl)-1,2-dihydropyridin-2-one], for which the IC50 on Human thrombin is < 100 nM; at Human KLKB1 (Table B), 1000 to 10000 nM; in data set [1] (Table B) it was > 100000 nM.

With `COc1ccccc1C(=O)n1nc(-c2ccc[nH]c2=O)cc1NCc1ccc(Cl)s1` [Cmpd 132, 3-(5-[(5-chlorothiophen-2-yl)methyl]amino-1-[(2-methoxyphenyl)carbonyl]-1H-pyrazol-3-yl)-1,2-dihydropyridin-2-one], the IC50 against Human thrombin was < 100 nM; at Human KLKB1 (Table B), 1000 to 10000 nM; in data set [1] (Table B) it was > 100000 nM.

For `COc1ccccc1C(=O)n1nc(-c2cccn(Cc3cccnn3)c2=O)cc1NCc1ccc(Cl)s1` [Cmpd 138, 3-(5-[(5-chlorothiophen-2-yl)methyl]amino-1-[(2-methoxyphenyl)carbonyl]-1H-pyrazol-3-yl)-1-(pyridazin-3-ylmethyl)-1,2-dihydropyridin-2-one], the values for the IC50 (on Human thrombin; against Human KLKB1 (Table B); in data set [1] (Table B)) were < 100 nM, 100 to 1000 nM and > 100000 nM, respectively.

Turning to `COc1ccccc1C(=O)n1nc(-c2cccn(CC(=O)N3CCOCC3)c2=O)cc1NCc1ccc(Cl)s1` [Cmpd 145, 3-(5-[(5-chlorothiophen-2-yl)methyl]amino-1-[(2-methoxyphenyl)carbonyl]-1H-pyrazol-3-yl)-1-[2-(morpholin-4-yl)-2-oxoethyl]-1,2-dihydropyridin-2-one], the results for the IC50 (on Human thrombin; at Human KLKB1 (Table B); in data set [1] (Table B)) were < 100 nM, 1000 to 10000 nM and > 100000 nM, respectively.

As for `COCCn1cccc(-c2cc(NCc3ccc(Cl)s3)n(C(=O)C3(C)CCOCC3)n2)c1=O` [Cmpd 149, 3-(5-[(5-chlorothiophen-2-yl)methyl]amino-1-[(4-methyloxan-4-yl)carbonyl]-1H-pyrazol-3-yl)-1-(2-methoxyethyl)-1,2-dihydropyridin-2-one], the IC50 against Human thrombin was > 100000 nM; against Human KLKB1 (Table B) it was 1000 to 10000 nM; in data set [1] (Table B), > 100000 nM.

For `O=C(c1ccc(N2CCOCC2)cc1)n1nc(-c2cccn(Cc3cccnc3)c2=O)cc1NCc1ccc(Cl)s1` [Cmpd 213, 3-(5-[(5-chlorothiophen-2-yl)methyl]amino-1-[4-(morpholin-4-yl)phenyl]carbonyl-1H-pyrazol-3-yl)-1-(pyridin-3-ylmethyl)-1,2-dihydropyridin-2-one], the 50% inhibitory concentration (IC50) is < 100 nM against Human thrombin, 100 to 1000 nM against Human KLKB1 (Table B) and > 100000 nM in data set [1] (Table B).

In the case of `COCCn1cccc(-c2cc(NCc3ccc(Cl)s3)n(C(=O)c3ccccc3Cl)n2)c1=O` [Cmpd 242, 3-1-[(2-chlorophenyl)carbonyl]-5-[(5-chlorothiophen-2-yl)methyl]amino-1H-pyrazol-3-yl-1-(2-methoxyethyl)-1,2-dihydropyridin-2-one], the IC50 is < 100 nM against Human thrombin, 100 to 1000 nM at Human KLKB1 (Table B) and > 100000 nM in data set [1] (Table B).

As to `O=C(c1ccccc1Cl)n1nc(-c2cccn(Cc3cccnc3)c2=O)cc1NCc1ccc(Cl)s1` [Cmpd 247, 3-1-[(2-chlorophenyl)carbonyl]-5-[(5-chlorothiophen-2-yl)methyl]amino-1H-pyrazol-3-yl-1-(pyridin-3-ylmethyl)-1,2-dihydropyridin-2-one], the IC50 against Human thrombin is < 100 nM; against Human KLKB1 (Table B) it was < 100 nM; in data set [1] (Table B) it was > 100000 nM.

For the compound `O=C(c1ccccc1Cl)n1nc(-c2cccn(Cc3ccncc3)c2=O)cc1NCc1ccc(Cl)s1` [Cmpd 248, 3-1-[(2-chlorophenyl)carbonyl]-5-[(5-chlorothiophen-2-yl)methyl]amino-1H-pyrazol-3-yl-1-(pyridin-4-ylmethyl)-1,2-dihydropyridin-2-one], the half-maximal inhibitory concentration (IC50) against Human thrombin is < 100 nM; against Human KLKB1 (Table B) it was 100 to 1000 nM; in data set [1] (Table B), > 100000 nM.

Turning to `COc1ccc(CNc2nc(-c3ccccn3)nn2C(=O)c2ccccc2)cc1` [Cmpd 360], the half-maximal inhibitory concentration (IC50) (against Human KLKB1 (Table C); in data set [1] (Table C)) was 1000 to 10000 nM each time.

Regarding `COc1ccc(CNc2nc(-c3cccnc3)nn2C(=O)c2ccccc2)cc1` [Cmpd 361], the IC50 (against Human KLKB1 (Table C); in data set [1] (Table C)) was 1000 to 10000 nM throughout.

Consider `O=C(c1ccccc1)n1nc(-c2ccccn2)nc1NCc1ccccc1` [Cmpd 362], for which the 50% inhibitory concentration (IC50) at Human KLKB1 (Table C) lay in the range of 100 to 1000 nM; in data set [1] (Table C), 10000 to 100000 nM.

Turning to `COc1ccccc1C(=O)n1nc(-c2cccnc2)nc1SC` [Cmpd 366, 3-1-[(2-methoxyphenyl)carbonyl]-5-(methylsulfanyl)-1H-1,2,4-triazol-3-ylpyridine], the IC50 (against Human KLKB1 (Table C); in data set [1] (Table C)) was 1000 to 10000 nM throughout.

Take `COc1ccc(C(=O)n2nc(C3CCOCC3)nc2NCc2ccc(Cl)s2)c(OC)c1` [Cmpd 384]: the IC50 against Human KLKB1 (Table C) was 100 to 1000 nM; in data set [1] (Table C), 10000 to 100000 nM.

As for `COc1ccccc1C(=O)n1nc(C2CCNCC2)nc1NCc1ccc(Cl)s1` [Cmpd 387], the concentration for half-maximal inhibition (IC50) against Human KLKB1 (Table C) is < 100 nM; in data set [1] (Table C) it was 10000 to 100000 nM.

On to `Cc1ccccc1C(=O)n1nc(-c2ccccn2)nc1NCc1ccc(Cl)s1` [Cmpd 391], for which the IC50 against Human KLKB1 (Table C) lay within 100 to 1000 nM; in data set [1] (Table C), 10000 to 100000 nM.

On to `COc1ccccc1C(=O)n1nc(-c2ccc(N(C)C)cc2)nc1NCc1ccc(Cl)s1` [Cmpd 393], for which the IC50 against Human KLKB1 (Table C) lay within 100 to 1000 nM; in data set [1] (Table C), 10000 to 100000 nM.

Turning to `O=C(c1ccsc1)n1nc(-c2ccncc2)nc1NCc1ccccc1` [Cmpd 407], the IC50 at Human KLKB1 (Table C) is 100 to 1000 nM; in data set [1] (Table C) it was > 100000 nM.
